Test results taken from patent US6962931B2, “Self-emulsifying formulations of cholesteryl ester transfer protein inhibitors” (Pfizer Inc., priority 2001, dated 2005).
Values after ≈ are worked out from the molar mass of the structure shown. Read-outs that look alike come from different tables or passages of the source.

Assay: Microsolubility estimate by repeated addition of vehicle
Type: physicochemical
Settings: thermodynamic from solid, read-out: Microsolubility
Description: (§1) For CETP inhibitors where quantities were limited, an estimate of solubility was obtained by addition of vehicle to a known quantity of the compound and mixing in an ultrasonicator bath for 90 minutes, followed by overnight equilibration at ambient temperature. Addition of vehicle was repeated until a solution was achieved.
as §1, with “limited or the samples were amorphous solids,” for “limited,”, “achieved. From the total volume of vehicle added to solubilize the CETP inhibitor compound, the solubility value, or so-called microsolubility, was calculated by the equation: Weight of sample (mgA)/vehicle volume (mL)=Microsolubility (mgA/mL)” for “achieved.”

[1] = Cremophor EL, organic solvent or mixture
[2] = Crodamol GTCC/Capmul MCM/Polysorbate 80 (40/40/20), oil or lipid
[3] = Corn, Safflower, Soybean oils, oil or lipid
[4] = PEG 400, organic solvent or mixture

Solubility [1]	Solubility [2]	Solubility (Olive oil, oil or lipid)	Solubility (Sesame oil, oil or lipid)	Solubility (Capmul MCM, oil or lipid)	Solubility [3]	Solubility (Crodamol GTCC, oil or lipid)	Solubility [4]	Solubility (Miglyol 812, oil or lipid)	Solubility (Safflower oil, oil or lipid)	Solubility (Corn oil/Labrafil (80/20), oil or lipid)	Solubility (Corn oil/Polysorbate 80 (80/20), oil or lipid)	Solubility (Peanut oil, oil or lipid)	Compound
> 300 mg/mL	> 300 mg/mL	> 300 mg/mL	> 300 mg/mL										COC(=O)N(Cc1cc(C(F)(F)F)cc(C(F)(F)F)c1)[C@H]1CC(C2CC2)N(C(=O)OC(C)C)c2ccc(C(F)(F)F)cc21 (stereo in doubt) [Compound G, [2R,4S] 4-[(3,5-Bis-trifluoromethyl-benzyl)-methoxycarbonyl-amino]-2-cyclopropyl-6-trifluoromethyl-3,4-dihydro-2H-quinoline-1-carboxylic acid isopropyl ester]
< 160 mg/mL		> 300 mg/mL		> 300 mg/mL	> 300 mg/mL	> 300 mg/mL	< 160 mg/mL						COC(=O)N(Cc1cc(C(F)(F)F)cc(C(F)(F)F)c1)[C@@H]1CC(C2CC2)N(C(=O)OC(C)C)c2ccc(C(F)(F)F)cc21 (stereo in doubt) [Compound H, [2S,4R] 4-[(3,5-Bis-trifluoromethyl-benzyl)-methoxycarbonyl-amino]-2-cyclopropyl-6-trifluoromethyl-3,4-dihydro-2H-quinoline-1-carboxylic acid isopropyl ester]
		< 300 mg/mL		> 300 mg/mL				> 300 mg/mL	< 300 mg/mL				CCCOC(=O)N1c2ccc(C(F)(F)F)cc2[C@@H](N(Cc2cc(C(F)(F)F)cc(C(F)(F)F)c2)C(C)=O)CC1C1CC1 (stereo in doubt) [Compound M, [2R,4S] 4-[Acetyl-(3,5-bis-trifluoromethyl-benzyl)-amino]-2-cyclopropyl-6-trifluoromethyl-3,4-dihydro-2H-quinoline-1-carboxylic acid propyl ester]
		> 300 mg/mL		> 300 mg/mL				> 300 mg/mL	> 300 mg/mL				CCCOC(=O)N1c2ccc(C(F)(F)F)cc2[C@@H](N(C=O)Cc2cc(C(F)(F)F)cc(C(F)(F)F)c2)CC1C1CC1 (stereo in doubt) [Compound N, [2R,4S] 4-[(3,5-Bis-trifluoromethyl-benzyl)-formyl-amino]-2-cyclopropyl-6-trifluoromethyl-3,4-dihydro-2H-quinoline-1-carboxylic acid propyl ester]
		303 mg/mL (≈ 493 mM)						< 100 mg/mL					CCCOC(=O)N1c2ccc(C(F)(F)F)cc2[C@@H](N(Cc2cc(C(F)(F)F)cc(C(F)(F)F)c2)C(=O)OC)C[C@H]1CC [Compound F, [2R,4S] 4-[(3,5-Bis-trifluoromethyl-benzyl)-methoxycarbonyl-amino]-2-ethyl-6-trifluoromethyl-3,4-dihydro-2H-quinoline-1-carboxylic acid propyl ester]
	> 20 mg/mL	< 20 mg/mL	< 20 mg/mL	> 20 mg/mL	< 20 mg/mL	> 20 mg/mL	< 20 mg/mL			< 20 mg/mL	> 20 mg/mL	< 20 mg/mL	CCOC(=O)N1c2cc(C(F)(F)F)ccc2[C@@H](N(Cc2cc(C(F)(F)F)cc(C(F)(F)F)c2)C(=O)OC)C[C@H]1C [Compound I, [2R,4S] 4-[(3,5-Bis-trifluoromethyl-benzyl)-methoxycarbonyl-amino]-2-methyl-7-trifluoromethyl-3,4-dihydro-2H-quinoline-1-carboxylic acid ethyl ester]
	> 100 mg/mL	> 100 mg/mL	> 100 mg/mL	> 100 mg/mL	> 100 mg/mL	> 100 mg/mL	50 to 100 mg/mL (≈ 89.5 to 179 mM)					> 100 mg/mL	CCOC(=O)N1c2cc3c(cc2[C@H](N(Cc2cc(C(F)(F)F)cc(C(F)(F)F)c2)C(=O)OC)C[C@@H]1C)CCC3 [Compound J, [2S,4R] 4-[(3,5-Bis-trifluoromethyl-benzyl)-methoxycarbonyl-amino]-2-methyl-2,3,4,6,7,8-hexahydro-cyclopenta[g]quinoline-1-carboxylic acid ethyl ester]
		< 300 mg/mL		> 300 mg/mL				> 300 mg/mL	> 300 mg/mL				CCOC(=O)N1c2ccc(C(F)(F)F)cc2[C@@H](N(Cc2cc(C(F)(F)F)cc(C(F)(F)F)c2)C(=O)OC)C[C@H]1C [Compound L, [2R,4S] 4-[(3,5-Bis-trifluoromethyl-benzyl)-methoxycarbonyl-amino]-2-methyl-6-trifluoromethyl-3,4-dihydro-2H-quinoline-1-carboxylic acid ethyl ester]
		< 300 mg/mL		> 300 mg/mL				> 300 mg/mL	< 300 mg/mL				CCOC(=O)N1c2ccc(C(F)(F)F)cc2[C@@H](N(Cc2cc(C(F)(F)F)cc(C(F)(F)F)c2)C(C)=O)C[C@H]1C [Compound O, [2R,4S] 4-[Acetyl-(3,5-bis-trifluoromethyl-benzyl)-amino]-2-methyl-6-trifluoromethyl-3,4-dihydro-2H-quinoline-1-carboxylic acid ethyl ester]
		> 300 mg/mL		> 300 mg/mL				> 300 mg/mL	< 300 mg/mL				CCOC(=O)N1c2ccc(C(F)(F)F)cc2[C@@H](N(C=O)Cc2cc(C(F)(F)F)cc(C(F)(F)F)c2)C[C@H]1CC [Compound P, [2R,4S] 4-[(3,5-Bis-trifluoromethyl-benzyl)-formyl-amino]-2-ethyl-6-trifluoromethyl-3,4-dihydro-2H-quinoline-1-carboxylic acid ethyl ester]
		< 300 mg/mL		> 300 mg/mL				> 300 mg/mL	< 300 mg/mL				CCOC(=O)N1c2ccc(C(F)(F)F)cc2[C@@H](N(C=O)Cc2cc(C(F)(F)F)cc(C(F)(F)F)c2)C[C@H]1C [Compound Q, [2R,4S] 4-[(3,5-Bis-trifluoromethyl-benzyl)-formyl-amino]-2-methyl-6-trifluoromethyl-3,4-dihydro-2H-quinoline-1-carboxylic acid ethyl ester]
